Results on 2 compounds are retold here after PMC11243693, “Synthesis and Biological Evaluation of New Compounds with Nitroimidazole Moiety” (Molecules, 2024).

The term IC50 denotes the concentration at which inhibition is half-maximal. A lower IC50 goes with higher potency. Broadly, the MBC is the smallest concentration meeting the test's criterion for killing. As usually defined, the MIC is the lowest concentration found to suppress growth. Higher therefore signals a need for much substance. In general, MFC refers to the lowest tested concentration that kills the fungus rather than only halting it. Low readings indicate more potent killing, high ones less potent killing.

Assay [1] concerns HaCaT cells. In words: MTT assay, HaCaT normal cells. In kind it is cell-based. The note with it: HaCaT human immortal keratinocyte (normal cells), 24 h, mean SD. As to the method:
(§1) Colon cancer (SW480), breast adenocarcinoma (MDA-MB-231), lung carcinoma (A-549), prostate cancer (PC3), and immortal keratinocyte (HaCaT) cell lines of human origin were acquired from the American Type Culture Collection (ATCC). The recommended culture media and protocols provided by ATCC were as follows: SW480 were cultured in Minimum Essential Medium (MEM), MDA-MB-231, A-549, and HaCaT cells were cultured in Dulbecco’s Modified Eagle Medium (DMEM), while PC3 was cultured in Roswell Park Memorial Institute Medium (RPMI). The culture media were supplemented with 10% fetal bovine serum (FBS), penicillin (100 U/mL), and streptomycin (100 μg/mL). Cells were maintained in a humidified incubator at 37 °C with 5% CO2. Passaging was carried out upon reaching 80–90% confluence using 0.25% trypsin (Gibco Life Technologies, New York, NY, USA) treatment prior to experimentation.
(§2) Cell viability was assessed utilizing the MTT assay, which relies on the conversion of 3-(4,5-dimethylthiazol-2-yl)-2,5-diphenyltetrazolium bromide salt (MTT) to formazan crystals by mitochondrial dehydrogenases in viable cells. Initially, cells were plated in 96-well plates at a density of 1 × 10^4 cells per well and allowed to attach for 24 h at 37 °C in a CO2 incubator. Subsequently, the culture medium was replaced with fresh medium containing various concentrations of the test compounds (ranging from 1 to 100 μM), and cells were further cultured for 24 h at 37 °C in a CO2 incubator. Control wells were left untreated for comparison. After the incubation period, MTT solution (0.5 mg/mL in serum-free medium) was added to each well, followed by a 4-h incubation at 37 °C in a CO2 incubator. The medium was then aspirated, and the formazan crystals were dissolved by adding a mixture of isopropanol and DMSO (1:1). The absorbance of the resulting solution was measured at 570 nm using a UVM 340 reader (ASYS Hitech GmbH, Seekirchen am Wallersee, Austria). IC50 values were determined using GraphPad software (GraphPad Prism 8 Software).
In general terms: Tetrazolium dyes change colour on reduction, which living cells bring about.

Assay [2] concerns SW620 cells. Nature of the assay: MTT assay, SW620 cells. In kind it is cell-based, human. The note with it: SW620 human metastatic colon cancer, MTT, 24 h, mean SD.
The subject of assay [3] is MDA-MB-231 cells. In words: MTT assay, MDA-MB-231 cells. In kind it is cell-based, human. The note with it: MDA-MB-231 human breast adenocarcinoma, MTT, 24 h, mean SD. The protocol:
as §1, §2

The subject of assay [4] is A-549 cells. Nature of the assay: MTT assay, A-549 cells. It is filed as cell-based, human. The note with it: A-549 human lung carcinoma, MTT, 24 h, mean SD. As to the method: as §1, §2
Assay [5] has as its system Micrococcus luteus ATCC 10240. In words: Broth microdilution, M. luteus ATCC 10240. The following applies: Ml 10240. In kind it is cell-based. An outline of the steps: (§3)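 MIC: A570 after 18 ± 2 h, 35 ± 2 °C. Medium: MH broth (bacterium) or MH + 2% glucose (yeasts). Serial 2-fold dilutions of compound, top solution 1000 µg/mL. Inoculum: 0.5 McFarland suspension diluted 10×. MBC/MFC: subculture onto MHA or MHA + 2% glc, 99.9% growth inhibition.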
A general note: Broth dilution looks for growth in wells or tubes with falling amounts of substance.

The test system of assay [6] is Staphylococcus aureus ATCC 43300 methicillin-resistant MRSA. In words: Broth microdilution, S. aureus ATCC 43300 MRSA. It is filed as cell-based. The following applies: Sa 43300 MRSA. The essentials: as §3
For assay [7], the system named is Candida glabrata ATCC 15126. Nature of the assay: Broth microdilution, C. glabrata ATCC 15126. The following applies: Cg 15126. In kind it is cell-based. An outline of the steps: as §3
For assay [8], the system named is Candida glabrata ATCC 90030. Nature of the assay: Broth microdilution, C. glabrata ATCC 90030. It is filed as cell-based. The following applies: Cg 90030. An outline of the steps:
as §3

Assay [9] relates to Candida parapsilosis ATCC 22019. In words: Broth microdilution, C. parapsilosis ATCC 22019. It is filed as cell-based. The following applies: Cp 22019. The essentials: as §3
In assay [10] the test system is Bacillus cereus ATCC 10876. In words: Broth microdilution, B. cereus ATCC 10876. In kind it is cell-based. The following applies: Bc 10876. An outline of the steps:
as §3

The test system of assay [11] is Bacillus subtilis ATCC 6633. In words: Broth microdilution, B. subtilis ATCC 6633. It is filed as cell-based. The following applies: Bs 6633. The essentials:
as §3

Assay [12] has as its system Staphylococcus epidermidis ATCC 12228. Nature of the assay: Broth microdilution, S. epidermidis ATCC 12228. In kind it is cell-based. The note with it: Se 12228. The essentials:
as §3

Assay [13] deals with Staphylococcus aureus ATCC 6538. Nature of the assay: Broth microdilution, S. aureus ATCC 6538. It is filed as cell-based. The following applies: Sa 6538. The essentials:
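EUCAST broth microdilution: inoculum 0.5 McFarland, 10-fold diluted; Mueller-Hinton broth (bacteria) or MH + 2% glucose (yeast); twofold dilutions from 1000 µg/mL; 18 ± 2 h at 35 ± 2 °C, A570 read for MIC. MBC/MFC from subculture on MHA or MHA + 2% glc (99.9% kill).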

Assay [14] has as its system Candida auris CDC B11903. In words: Broth microdilution, C. auris CDC B11903. The note with it: Ca B11903. In kind it is cell-based. An outline of the steps: as §3
Assay [15] deals with Candida tropicalis ATCC 1369. In words: Broth microdilution, C. tropicalis ATCC 1369. It is filed as cell-based. The following applies: Ct 1369. An outline of the steps: as §3
For assay [16], the system named is Candida lusitaniae ATCC 3449. Nature of the assay: Broth microdilution, C. lusitaniae ATCC 3449. It is filed as cell-based. The note with it: Cl 3449. An outline of the steps:
as §3

The subject of assay [17] is Candida spp. Nature of the assay: Broth microdilution, Candida spp. In kind it is cell-based. The note with it: range over both strains and the listed compounds. The protocol: The antibacterial activity of the obtained thiosemicarbazides and hydrazide–hydrazones was determined by evaluating their ability to inhibit microbial growth in vitro using the broth microdilution method, according to the guidelines of the European Committee on Antimicrobial Susceptibility Testing (EUCAST). The method involved the preparation of microbial suspensions with a standardized density of 0.5 on the McFarland scale (equivalent to 1.5 × 10^8 colony-forming units/mL for bacteria and […] for fungi). A solution of the test substances was then prepared (initial concentration 1000 µg/mL, diluted in sterile Mueller-Hinton broth for bacteria or Mueller-Hinton with 2% glucose for fungi). The test was carried out in 96-well polystyrene flat-bottom plates (Medlab, Poland) with 100 µL of appropriate sterile microbiological medium in each well. The first wells were filled with 200 µL of the test substance, diluted to the initial concentration, and then double-decreasing dilutions were made under aseptic conditions using an automatic pipette. The final step was the addition of a 10-fold diluted microbial suspension of 2 µL. At the same time, the following controls were included: (a) medium control (100 µL of sterile medium without microorganisms added), (b) microbial viability control, (c) test substance control (dilutions without added micro-organisms), (d) positive control of the drug used in the clinic. The plates thus prepared were incubated for 18 ± 2 h at 35 ± 2 °C under conditions optimal for the growth of the test microorganisms. After incubation, the spectrophotometric absorbance at 570 nm in each well of the plate was read. The aim of this part of the study was to determine two parameters: the minimum inhibitory concentration (MIC) and the minimum bactericidal or fungicidal concentration (MBC/MFC) of the test compound. […] The MBC value was determined by adding 5 µL of the contents of each well of the plate to solid sterile MHA or MHA + 2%glc medium for bacteria and fungi, respectively. The area on the plate where 99.9% inhibition of microbial growth was observed indicated the lethal concentration. In addition, the quotient MBC(MFC)/MIC could be determined to assess the nature of the activity of the test substance. If MBC(MFC)/MIC was <4, the test substance was bactericidal/fungicidal, whereas if MBC(MFC)/MIC was ≥4, it was bacteriostatic/fungistatic. Amoxicillin (Glentham Life Sciences, USA) and nystatin (Glentham Life Sciences, USA) were used as the controls for this assay.
The test was performed either on bacteria, comprising: Gram-positive (Staphylococcus aureus ATCC 25923, Staphylococcus aureus ATCC 6538, Staphylococcus aureus ATCC 43300 methicillin-resistant MRSA, Staphylococcus epidermidis ATCC 12228, Micrococcus luteus ATCC 10240, Bacillus subtilis ATCC 6633, Bacillus cereus ATCC 10876) and Gram-negative (Escherichia coli ATCC 25922, Pseudomonas aeruginosa ATCC 27853, Proteus mirabilis ATCC 12453, Klebsiella pneumoniae ATCC 13883) or yeast (Candida parapsilosis ATCC 22019, Candida glabrata ATCC 90030, Candida krusei ATCC 14243, Candida glabrata ATCC 15126, Candida tropicalis ATCC 1369, Candida auris CDC B11903, Candida lusitaniae ATCC 3449) reference strains from the American Type Culture Collection (ATCC) or the Centers for Disease Control and Prevention (CDC).

Assay [18] deals with Staphylococcus aureus ATCC 25923. In words: Broth microdilution, S. aureus ATCC 25923. It is filed as cell-based. The note with it: Sa 25923. An outline of the steps: as §3
Assay [19] has as its system Candida krusei ATCC 14243. In words: Broth microdilution, C. krusei ATCC 14243. In kind it is cell-based. The following applies: Ck 14243. An outline of the steps: as §3
The mark [20] stands for this setting: <4 bactericidal, ≥4 bacteriostatic.

Structures are written as SMILES. Converted amounts (≈) assume the structure as drawn.

Turning to `N.N.[Cl][Pt][Cl]` [Cisplatin, cisplatin], the IC50 in [1] was determined as 6.3 ± 0.7 µM; in assay [2], 6.7 ± 1.1 µM; in [3], 7.8 ± 0.98 µM; in [4] it was 3.2 ± 1.24 µM.

`Cn1cc([N+](=O)[O-])nc1C(=O)NNC(=S)Nc1ccccc1C(F)(F)F` [Compound 12]: the MBC is reported as 500 µg/mL (≈ 1290 µM) in [5]; above 1000 µg/mL in assay [6]; 500 µg/mL (≈ 1290 µM) in assay [10]; 250 µg/mL (≈ 644 µM) in assay [11]; 500 µg/mL (≈ 1290 µM) in assay [12]; above 1000 µg/mL in assay [13]. The MBC in assay [18] is reported as above 1000 µg/mL. Also, the MIC in assay [5] is reported as 250 µg/mL (≈ 644 µM); in assay [6], 1000 µg/mL (≈ 2580 µM); in assay [7], above 1000 µg/mL; in assay [8], above 1000 µg/mL; in assay [9], 125 µg/mL (≈ 322 µM); in assay [10], 500 µg/mL (≈ 1290 µM). Moreover, the MIC in assay [11] is recorded as 250 µg/mL (≈ 644 µM); in assay [12], 500 µg/mL (≈ 1290 µM); in assay [13], 500 µg/mL (≈ 1290 µM); in [14] it was above 1000 µg/mL; in [15], 500 µg/mL (≈ 1290 µM); in [16], above 1000 µg/mL. In addition, the MIC is 250 µg/mL (≈ 644 µM) in assay [18] and above 1000 µg/mL in [19]. The “MBC/MIC Ratio” value in assay [5] (setting [20]) is on record as 2; in [10] (setting [20]) it was 1; in assay [11] (setting [20]), 1; in assay [12] (setting [20]), 1. Besides, the MFC in [9] is above 1000 µg/mL; in assay [15], 1000 µg/mL (≈ 2580 µM). The “MFC/MIC Ratio” value in [15] (<4 fungicidal, ≥4 fungistatic) stood at 2. Besides, in assay [17], the “MBC (range, C. parapsilosis ATCC 22019 and C. tropicalis ATCC 1369)” value was 500 to 1000 µg/mL. The “MIC (range, C. parapsilosis ATCC 22019 and C. tropicalis ATCC 1369)” value in assay [17] is 62.5 to 1000 µg/mL.
